Reference: BindingDB's records for doi:10.1021/jm00011a005 (University of Minnesota, 1995)

Target: Aldehyde dehydrogenase (Saccharomyces cerevisiae)
Test: In vitro inhibition against yeast Aldehyde dehydrogenase

Row | IC50 [µM] | SMILES
1 | > 1000 | O=C1c2ccccc2S(=O)(=O)N1O [2-Hydroxy-1,1-dioxo-1,2-dihydro-1lambda*6*-benzo[d]isothiazol-3-one]
2 | 240 | CC(=O)ON1C(=O)c2ccccc2S1(=O)=O [Acetic acid 1,1,3-trioxo-1,3-dihydro-1lambda*6*-benzo[d]isothiazol-2-yl ester]
